Reference: US10385019B2, “Inhibitors of EGFR and methods of use thereof” (Dana-Farber Cancer Institute, Inc., priority 2015, dated 2019)
Like-named read-outs stand apart in the source and are kept apart here.

Assays:
Experiment in all cases: Ba/F3 cell proliferation model
Format in all cases: cell-based, murine
[1] = target: EGFR T790M/L858R Ba/F3 cell line (Homo sapiens, UniProt P00533, T790M/L858R, cells depend on it); settings: for Activity (% inhibition): combined with cetuximab (% cetuximab, 1.0 μM drug concentration with 1.0 μg/mL cetuximab)
Procedure, shortened: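 Murine Ba/F3 cells made IL-3-independent by retroviral EGFR L858R/T790M, selected in puromycin (2 μg/ml) and kept in RPMI 1640 with 10% FBS. Cells were exposed to serially diluted compound for 72 h, with growth read by MTS assay in six wells per point and ≥3 repeats. Sigmoidal dose-response non-linear regression gave the values.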

[2] = target: Del/T790M Ba/F3 cell line (Homo sapiens, UniProt P00533, DEL746-750/T790M, cells depend on it)
Source text: (§1) The selectivity between wild-type EGFR and EGFR containing one or more mutations as described herein can also be measured using cellular proliferation assays where cell proliferation is dependent on kinase activity. For example, murine Ba/F3 cells transfected with a suitable version of wild-type EGFR (such as VIII; containing a WT EGFR kinase domain), or Ba/F3 cells transfected with L858R/T790M, Del/T790M/L718Q, L858R/T790M/L718Q, L858R/T790M/C797S, Del/T790M/C797S, L858R/T790M/I941R, or Exon 19 deletion/T790M can be used.
(§2) Cell lines are plated in media. The compounds of the present disclosure are then serially diluted and transferred to the cells. Cell viability is measured via a luminescent readout. Data is analyzed by non-linear regression curve-fitting.
(§3) The EGFR mutant L858R, Del E746_A750, L858R/T790M, DelE746_A750/T790M, L858R/T790M/C797S and Del/T790M/C797S Ba/F3 cells have been previously described (Zhou, W., Ercan, D., Chen, L., Yun, C. H., Li, D., Capelletti, M., Cortot, A. B., Chirieac, L., Iacob, R. E., Padera, R., et al. “Novel mutant-selective EGFR kinase inhibitors against EGFR T790M,” Nature 462, (2009), 1070-1074). All cell lines were maintained in RPMI 1640 (Cellgro; Mediatech Inc., Herndon, Calif.) supplemented with 10% FBS 100 units/mL penicillin, 100 units/mL streptomycin, and 2 mM glutamine. L858R cells were maintained in ACL-4 media (Invitrogen, Carlsbad, Calif.) supplemented with 5% FBS, 100 units/mL penicillin, 100 units/mL streptomycin, and 2 mM glutamine. The EGFR I941R mutation was introduced via site directed mutagenesis using the Quick Change Site-Directed Mutagenesis kit (Stratagene; La Jolla, Calif.) according to the manufacturer's instructions. All constructs were confirmed by DNA sequencing. The constructs were shuttled into the retroviral vector JP 1540 using the BD Creator™ System (BD Biosciences). Ba/F3 cells were infected with retrovirus and according to standard protocols, as described previously (Zhou et al, Nature 2009). Stable clones were obtained by selection in puromycin (2 μg/ml).
(§4) Growth and inhibition of growth was assessed by MTS assay and was performed according to previously established methods (Zhou et al., Nature 2009). The MTS assay is a colorimetric method for determining the number of viable cells that is based on the bioreduction of MTS by cells to a formazan product that is soluble in cell culture medium and can be detected spectrophotometrically. Ba/F3 cells of different EGFR genotypes were exposed to treatment for 72 hours and the number of cells used per experiment determined empirically and has been previously established (Zhou et al., Nature 2009). All experimental points were set up in six wells and all experiments were repeated at least three times. […] The curves were fitted using a non-linear regression model with a sigmoidal dose response.

[3] = test system: EGFR Parental Ba/F3 cell line; settings: Mus musculus, BaF3; compound alone
Source text: as §1, §2, §3, §4

[4] = compound alone, read-out: L858R/T790M IC50
[5] = read-out: L858R/T790M Cetuximab IC50, in combination with Cetuximab
[6] = compound alone, read-out: Del/T790M IC50
[7] = read-out: Del/T790M Cetuximab IC50, in combination with Cetuximab

Del/T790M Ba/F3 cell line, sequence (P00533 with tags, fused parts or gaps DEL746-750/T790M): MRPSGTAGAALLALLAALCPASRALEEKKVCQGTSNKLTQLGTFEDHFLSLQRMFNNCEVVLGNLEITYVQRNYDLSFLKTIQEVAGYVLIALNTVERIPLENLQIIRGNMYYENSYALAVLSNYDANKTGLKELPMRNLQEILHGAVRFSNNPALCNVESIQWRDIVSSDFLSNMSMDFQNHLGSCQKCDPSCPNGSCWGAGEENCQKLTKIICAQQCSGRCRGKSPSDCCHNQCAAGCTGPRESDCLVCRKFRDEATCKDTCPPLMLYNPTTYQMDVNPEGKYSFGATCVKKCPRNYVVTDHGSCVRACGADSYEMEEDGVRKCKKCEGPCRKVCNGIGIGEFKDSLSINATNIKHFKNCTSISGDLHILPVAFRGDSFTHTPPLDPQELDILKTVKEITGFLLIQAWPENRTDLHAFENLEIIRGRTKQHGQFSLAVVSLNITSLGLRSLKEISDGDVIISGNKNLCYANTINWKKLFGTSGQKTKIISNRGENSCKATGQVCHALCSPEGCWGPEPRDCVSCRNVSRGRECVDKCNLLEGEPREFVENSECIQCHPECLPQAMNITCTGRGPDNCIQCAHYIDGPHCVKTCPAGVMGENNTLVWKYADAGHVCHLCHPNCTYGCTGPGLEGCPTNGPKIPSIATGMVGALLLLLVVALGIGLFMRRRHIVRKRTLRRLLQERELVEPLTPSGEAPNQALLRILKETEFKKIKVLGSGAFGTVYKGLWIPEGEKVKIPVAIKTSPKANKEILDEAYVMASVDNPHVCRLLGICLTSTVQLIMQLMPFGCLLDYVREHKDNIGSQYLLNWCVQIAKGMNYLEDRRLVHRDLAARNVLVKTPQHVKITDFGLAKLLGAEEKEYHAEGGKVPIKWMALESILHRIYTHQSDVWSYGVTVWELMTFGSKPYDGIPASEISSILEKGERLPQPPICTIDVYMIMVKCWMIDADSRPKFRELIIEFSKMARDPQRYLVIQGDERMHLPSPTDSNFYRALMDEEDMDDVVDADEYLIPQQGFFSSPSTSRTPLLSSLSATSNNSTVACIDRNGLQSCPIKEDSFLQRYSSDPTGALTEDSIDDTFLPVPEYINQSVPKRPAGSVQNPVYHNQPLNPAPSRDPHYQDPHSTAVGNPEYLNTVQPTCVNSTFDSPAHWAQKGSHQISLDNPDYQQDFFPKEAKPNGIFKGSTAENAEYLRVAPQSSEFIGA
EGFR T790M/L858R Ba/F3 cell line, sequence (P00533 whole entry T790M/L858R): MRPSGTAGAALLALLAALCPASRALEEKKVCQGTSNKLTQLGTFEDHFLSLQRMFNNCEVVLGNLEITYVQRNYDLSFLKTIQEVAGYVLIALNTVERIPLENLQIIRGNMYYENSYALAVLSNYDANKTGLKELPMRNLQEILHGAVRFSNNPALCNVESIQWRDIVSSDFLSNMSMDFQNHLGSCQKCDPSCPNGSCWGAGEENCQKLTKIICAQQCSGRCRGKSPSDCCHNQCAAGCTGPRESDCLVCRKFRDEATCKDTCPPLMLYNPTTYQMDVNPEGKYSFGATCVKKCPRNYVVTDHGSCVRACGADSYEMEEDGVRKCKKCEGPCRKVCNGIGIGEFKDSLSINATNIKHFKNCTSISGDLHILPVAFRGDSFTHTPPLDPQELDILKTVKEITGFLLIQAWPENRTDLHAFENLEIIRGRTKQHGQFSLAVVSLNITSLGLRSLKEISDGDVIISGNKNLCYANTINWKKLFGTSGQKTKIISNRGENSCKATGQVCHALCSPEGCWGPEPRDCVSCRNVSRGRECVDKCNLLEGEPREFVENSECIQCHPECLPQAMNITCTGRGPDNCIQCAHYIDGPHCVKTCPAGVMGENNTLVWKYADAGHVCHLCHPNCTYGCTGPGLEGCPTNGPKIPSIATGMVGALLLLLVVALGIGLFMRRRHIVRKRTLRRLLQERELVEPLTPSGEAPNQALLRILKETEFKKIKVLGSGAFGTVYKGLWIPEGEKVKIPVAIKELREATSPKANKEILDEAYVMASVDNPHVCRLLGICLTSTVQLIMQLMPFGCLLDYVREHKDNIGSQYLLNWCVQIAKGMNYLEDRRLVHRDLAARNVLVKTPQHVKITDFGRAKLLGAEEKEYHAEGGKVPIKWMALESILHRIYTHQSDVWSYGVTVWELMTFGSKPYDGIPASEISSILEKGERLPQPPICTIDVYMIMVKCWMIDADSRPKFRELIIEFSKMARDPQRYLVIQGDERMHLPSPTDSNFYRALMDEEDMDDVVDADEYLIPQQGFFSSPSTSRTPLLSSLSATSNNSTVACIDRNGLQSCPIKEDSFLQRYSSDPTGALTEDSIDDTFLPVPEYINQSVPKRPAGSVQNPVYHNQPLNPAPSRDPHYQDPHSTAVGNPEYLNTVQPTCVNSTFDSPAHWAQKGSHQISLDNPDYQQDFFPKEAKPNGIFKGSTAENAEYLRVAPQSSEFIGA

O=C(Nc1nccs1)[C@@H](c1ccccc1)N1Cc2ccc(-c3cnc4ccccc4c3)cc2C1=O [Compound I-70, (R)-2-(1-oxo-6-(quinolin-3-yl)isoindolin-2-yl)-2-phenyl-N-(thiazol-2-yl)acetamide]
Activity (% inhibition) [1]: D (a % inhibition of between about 0% to about 25%)
GI50 [1, 4]: > 10 µM
GI50 [1, 5]: < 0.5 µM
GI50 [2, 6]: > 10 µM
GI50 [2, 7]: > 10 µM
IC50 [3]: > 10 µM

O=C(Nc1nccs1)[C@@H](c1ccccc1)N1Cc2ccc(-c3ccccc3F)cc2C1=O [Compound I-75, (R)-2-(6-(2-fluorophenyl)-1-oxoisoindolin-2-yl)-2-phenyl-N-(thiazol-2-yl)acetamide]
Activity (% inhibition) [1]: D (a % inhibition of between about 0% to about 25%)
GI50 [1, 4]: > 10 µM
GI50 [1, 5]: < 0.5 µM
GI50 [2, 6]: 1 to 10 µM
GI50 [2, 7]: 1 to 10 µM
IC50 [3]: > 10 µM

COc1cc(OC)cc(-c2ccc3c(c2)C(=O)N([C@@H](C(=O)Nc2nccs2)c2ccccc2)C3)c1 [Compound I-79, (R)-2-(6-(3,5-dimethoxyphenyl)-1-oxoisoindolin-2-yl)-2-phenyl-N-(thiazol-2-yl)acetamide]
Activity (% inhibition) [1]: D (a % inhibition of between about 0% to about 25%)
GI50 [1, 4]: > 10 µM
GI50 [1, 5]: < 0.5 µM
GI50 [2, 6]: > 10 µM
GI50 [2, 7]: > 10 µM
IC50 [3]: > 10 µM

CN(C)CCNC(=O)c1ccc(-c2ccc3c(c2)C(=O)N([C@@H](C(=O)Nc2nccs2)c2ccccc2)C3)cc1 [Compound I-81, (R)-N-(2-(dimethylamino)ethyl)-4-(3-oxo-2-(2-oxo-1-phenyl-2-(thiazol-2-ylamino)ethyl)isoindolin-5-yl)benzamide]
Activity (% inhibition) [1]: D (a % inhibition of between about 0% to about 25%)
GI50 [1, 4]: 1 to 10 µM
GI50 [1, 5]: < 0.5 µM
GI50 [2, 6]: 1 to 10 µM
GI50 [2, 7]: 1 to 10 µM
IC50 [3]: 1 to 10 µM

O=C(Nc1nccs1)[C@H](c1ccccc1)N1Cc2ccc(-c3ccc4[nH]ccc4c3)cc2C1=O [Compound I-112, (S)-2-(6-(1H-indol-5-yl)-1-oxoisoindolin-2-yl)-2-phenyl-N-(thiazol-2-yl)acetamide]
Activity (% inhibition) [1]: D (a % inhibition of between about 0% to about 25%)
GI50 [1, 4]: 1 to 10 µM
GI50 [1, 5]: < 0.5 µM
GI50 [2, 6]: > 10 µM
GI50 [2, 7]: > 10 µM
IC50 [3]: > 10 µM

O=C(Nc1nccs1)[C@H](c1ccccc1)N1Cc2ccc(-c3ccccc3F)cc2C1=O [Compound I-113, (S)-2-(6-(2-fluorophenyl)-1-oxoisoindolin-2-yl)-2-phenyl-N-(thiazol-2-yl)acetamide]
Activity (% inhibition) [1]: C (a % inhibition of between about 25% to about 50%)
GI50 [1, 4]: > 10 µM
GI50 [1, 5]: < 0.5 µM
GI50 [2, 6]: > 10 µM
GI50 [2, 7]: > 10 µM
IC50 [3]: > 10 µM

O=C(Nc1nccs1)[C@H](c1ccccc1)N1Cc2ccc(-c3ccc(N4CCNCC4)cc3)cc2C1=O [Compound I-115, (S)-2-(1-oxo-6-(4-(piperazin-1-yl)phenyl)isoindolin-2-yl)-2-phenyl-N-(thiazol-2-yl)acetamide]
Activity (% inhibition) [1]: D (a % inhibition of between about 0% to about 25%)
GI50 [1, 4]: 1 to 10 µM
GI50 [1, 5]: < 0.5 µM
GI50 [2, 6]: 1 to 10 µM
GI50 [2, 7]: 1 to 10 µM
IC50 [3]: 1 to 10 µM

CC(C)(C)OC(=O)N1CCN(c2ccc(-c3ccc4c(c3)C(=O)N([C@@H](C(=O)Nc3nccs3)c3ccccc3)C4)c(F)c2)CC1 [Compound I-119, tert-butyl (R)-4-(3-fluoro-4-(3-oxo-2-(2-oxo-1-phenyl-2-(thiazol-2-ylamino)ethyl)isoindolin-5-yl)phenyl)piperazine-1-carboxylate]
Activity (% inhibition) [1]: D (a % inhibition of between about 0% to about 25%)
GI50 [1, 4]: > 10 µM
GI50 [1, 5]: < 0.5 µM
GI50 [2, 6]: > 10 µM
GI50 [2, 7]: > 10 µM
IC50 [3]: > 10 µM
